16 compounds from patent US20040180925A1, “Dipeptidylpeptidase-IV inhibitor” (priority 2000, published 2004) can be followed below.

Usually IC50 stands for the concentration needed to halve the response being measured. Lower therefore signals inhibition by little substance.

The target in assay [1] is T1, DPP-IV (Rattus norvegicus, UniProt P14740).
T1 construct: The coagulated blood was centrifuged at 3,000 rpm for 20 minutes to separate serum for use in the experiment; from tissue; host or cells: rat serum (blood from the crural aorta, coagulated and centrifuged)
Put plainly: Test for inhibitory action against DPP-IV (rat serum, Gly-Pro-AMC fluorescence). Particulars: Gly-Pro-AMC 50 μmol/L, pH 7.8, room temperature 20 minutes. The format is biochemical. The procedure:
Under mild anesthesia with diethylether, a rat was incised at lower left side of the limb, and the crural aorta was cut and blood was collected. The collected blood was immediately ice-cooled. The coagulated blood was centrifuged at 3,000 rpm for 20 minutes to separate serum for use in the experiment. As reaction buffer, an aqueous solution containing HEPES (final concentration of 25 mmol/L) and sodium chloride (final concentration of 140 mmol/L) was prepared so as to give a final pH of 7.8, and used after addition of BSA (final concentration of 1%). An assay was conducted using a black, flat-bottomed 96 well plate. A test sample (2 μL) was added to each well, and the sample was added with rat serum (25 u L) and reaction buffer (25 u L) containing magnesium chloride (80 mmol/L), and the mixture was left stand at room temperature for 5 minutes. Then, a reaction was initiated by the addition of 50 u L of a solution of Gly-Pro-AMC (AMC: 7-amino-4-methylcoumarin) (final concentration of 50 μmol/L) to each well, and the mixture was left stand in the dark at room temperature for 20 minutes. AMC, which was released by DPP-IV activity, was quantified by measurement of fluorescence at 460 nm which was excited at 390 nm. DPP-IV activity was calculated according to the following equation:
Inhibitory activity against DPP-IV=100×{1−(Fs−F0)/(F100−F0)}
F100: Fluorescence intensity of AMC with addition of serum
F0: Fluorescence intensity of AMC without addition of serum
Fs: Fluorescence intensity of AMC with addition of a sample and serum

The subject of assay [2] is Wistar male rats. Kind of assay: Suppressing effect on increase of blood sugar after oral glucose loading (Test Example 2). Particulars: Wistar male rats fasted 24 hours, 30 mg/kg po. The format is in vivo, rat. Here is the method:
Blood-sugar levels of Wistar male rats (9-week old, Charles river) fasted for 24 hours were measured. A test compound was orally administered to the rats in a dose of […], and then immediately glucose (2 g/kg) was orally administered to the rats. After 30 minutes from the glucose loading, blood-sugar levels were further measured to evaluate suppressing effects of test compounds on increase of blood sugar. The blood-sugar levels were measured by a portable apparatus for measurement of blood sugar [Blood glucose meter, Dexter-Z (Bayer. Sankyo, Tokyo)]. The test compounds were dissolved in 0.5% methylcellulose 400 for administration. The results are shown in Table 3 (** indicates p<0.01 in Student's t-test).

Assay [3] deals with Wistar male rats. Kind of assay: Suppressing effect on increase of blood sugar after oral glucose loading (Test Example 3, glucose oxidase method). The format is in vivo, rat. The following applies: Wistar male rats fasted 24 hours, 1 mg/kg po; for Blood-sugar level, 0 minute: 0 minute (before glucose loading); for Blood-sugar level, 30 minutes after glucose loading: glucose 2 g/kg po. Here is the method:
Blood-sugar levels of Wistar male rats (10-week old, Charles river) fasted for 24 hours were measured. A test compound was orally administered to the rats in a dose of 1 mg/kg, and then immediately glucose (2 g/kg) was orally administered to the rats. After 30 minutes from the glucose loading, blood-sugar levels were further measured to evaluate suppressing effects of test compounds on increase of blood sugar. The sugar levels were measured by the glucose oxidase method [Clin. Chem., 6, 466 (1960); J. Clin. Path., 22, 246 (1969); Clin. Chem. Acta, 40, 115 (1972); Clin. Chem., 20, 606 (1974) or the like]. The test compounds were dissolved in 0.5% methylcellulose 400 for administration.

Molecules are shown by their SMILES. Structures can show the parent of a compound that is named as a salt.

T1 sequence (P14740 37-767 limits assumed): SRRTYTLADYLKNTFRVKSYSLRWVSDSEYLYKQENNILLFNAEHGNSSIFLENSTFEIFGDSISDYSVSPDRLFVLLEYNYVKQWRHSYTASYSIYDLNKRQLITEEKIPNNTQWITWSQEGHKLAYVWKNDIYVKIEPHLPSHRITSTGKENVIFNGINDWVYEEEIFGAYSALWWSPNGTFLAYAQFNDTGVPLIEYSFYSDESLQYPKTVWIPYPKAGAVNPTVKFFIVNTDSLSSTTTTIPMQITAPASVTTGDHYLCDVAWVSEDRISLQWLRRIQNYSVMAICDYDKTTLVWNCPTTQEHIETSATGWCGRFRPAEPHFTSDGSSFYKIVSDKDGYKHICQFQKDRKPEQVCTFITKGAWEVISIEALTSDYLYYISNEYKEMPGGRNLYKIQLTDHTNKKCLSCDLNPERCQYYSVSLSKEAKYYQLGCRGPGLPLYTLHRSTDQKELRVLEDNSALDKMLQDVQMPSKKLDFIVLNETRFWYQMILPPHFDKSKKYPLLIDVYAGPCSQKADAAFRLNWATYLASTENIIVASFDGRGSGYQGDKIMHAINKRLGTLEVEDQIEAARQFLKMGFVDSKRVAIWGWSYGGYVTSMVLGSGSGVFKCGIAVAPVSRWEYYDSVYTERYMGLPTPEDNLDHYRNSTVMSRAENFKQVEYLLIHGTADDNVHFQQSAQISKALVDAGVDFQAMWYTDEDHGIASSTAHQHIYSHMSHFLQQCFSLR

Consider `CC(C)(CNc1ccc(C(N)=O)cn1)NCC(=O)N1CCC[C@H]1C#N` [Compound 221, (S)-1-[1-(5-Carbamoyl-2-pyridylamino)-2-methyl-2-propylamino]acetyl-2-pyrrolidinecarbonitrile], for which the 50% inhibitory concentration (IC50) in assay [1] was 0.027 µM.
Compound `N#C[C@@H]1CCCN1C(=O)CNC1CCN(S(=O)(=O)c2ccccc2)CC1` [Compound 407, (S)-1-(1-Benzenesulfonyl-4-piperidylamino)acetyl-2-carbonitrile methanesulfonate] gave an IC50 in assay [1] of 0.02 µM.
For the compound `N#C[C@@H]1CCCN1C(=O)CNCCNc1cnccn1` [Compound 101, (S)-1-[2-(2-Pyrazinylamino)ethylamino]acetyl-2-pyrrolidinecarbonitrile dimethanesulfonate], the “blood sugar level, 0 minute” value in assay [2] (0 minute (before glucose loading)) was found to be 68 ± 2 mg/dL. Also, the “blood sugar level, 30 minutes after glucose loading” value in assay [2] (glucose 2 g/kg po, 30 minutes, ** p<0.01 Student's t-test) is 104 ± 4** mg/dL. Besides, the IC50 in assay [1] worked out at 0.031 µM.
In assay [1], `CC(C)(CNc1ccc(C#N)cc1)NCC(=O)N1CCC[C@H]1C#N` [Compound 703, (S)-1-[1-(4-Cyanoanilino)-2-methyl-2-propylamino]acetyl-2-carbonitrile fumarate] displayed an IC50 of 0.053 µM.
`CC1(NCC(=O)N2CCC[C@H]2C#N)CCN(c2ccc(C#N)cn2)CC1` [Compound 207, (S)-1-[1-(5-Cyano-2-pyridyl)-4-methyl-4-piperidylamino]acetyl-2-pyrrolidinecarbonitrile dihydrochloride] displayed an IC50 in assay [1] of 0.015 µM.
In assay [1], `N#Cc1ccc(NCC2(NC(=O)CN3CCC[C@H]3C#N)CCCC2)nc1` [Compound 602, 1-[(5-Cyanopyridin-2-ylamino)methyl]-1-[(S)-2-cyanopyrrolidinylacetylamino]cyclopentane fumarate] showed an IC50 of 0.041 µM.
Still for that read-out and setting: the figure for `CC(C)(CNc1nccs1)NCC(=O)N1CCC[C@H]1C#N` [Compound 226, (S)-1-[2-Methyl-1-(2-thiazolylamino)-2-propylamino]acetyl-2-pyrrolidinecarbonitrile fumarate] is 0.018 µM.
In the case of `CC1(NCC(=O)N2CCC[C@H]2C#N)CCN(c2ncccn2)CC1` [Compound 233, (S)-1-[4-Methyl-1-(2-pyrimidinyl)-4-piperidylamino]acetyl-2-pyrrolidinecarbonitrile], in assay [3], the “Blood-sugar level, 0 minute” value amounted to 93 ± 15 mg/dL and the “Blood-sugar level, 30 minutes after glucose loading” value (“Blood-sugar level, 30 minutes” for short) was found to be 183 ± 8 mg/dL. In assay [1], this compound had an IC50 of 0.019 µM.
As to `CCN(C)S(=O)(=O)c1ccc(NCC(C)(C)NCC(=O)N2CCC[C@H]2C#N)nc1` [Compound 513, (S)-1-{1-[5-(N-Ethyl-N-methylaminosulfonyl)-2-pyridylamino]-2-methyl-2-propylamino}acetyl-2-pyrrolidinecarbonitrile], in assay [3], the “Blood-sugar level, 0 minute” value turned out to be 109 ± 6 mg/dL and the “Blood-sugar level, 30 minutes” value stood at 252 ± 22 mg/dL.
Consider `CC1(NCC(=O)N2CCC[C@H]2C#N)CCN(c2ccc(S(=O)(=O)N3CC=CC3)cn2)CC1` [Compound 529, (S)-1-{4-Methyl-1-[5-(3-pyrrolin-1-ylsulfonyl)-2-pyridyl]-4-piperidylamino}acetyl-2-pyrrolidinecarbonitrile], for which the IC50 in assay [1] was 0.026 µM. This counts as double-digit nanomolar.
For `CN(C)S(=O)(=O)c1ccc(NCC(C)(C)NCC(=O)N2CCC[C@H]2C#N)nc1` [Compound 501, (S)-1-{1-[5-(N,N-Dimethylaminosulfonyl)-2-pyridylamino]-2-methyl-2-propylamino}acetyl-2-pyrrolidinecarbonitrile], in assay [3], the “Blood-sugar level, 0 minute” value was 95 ± 7 mg/dL and the “Blood-sugar level, 30 minutes” value came to 182 ± 16 mg/dL. Further, it took 0.023 µM to reach half-maximal inhibition in assay [1] (IC50).
Turning to `CC(C)(CNc1ccc(S(=O)(=O)NCCO)cn1)NCC(=O)N1CCC[C@H]1C#N` [Compound 524, (S)-1-{1-{5-[N-(2-Hydroxyethyl)aminosulfonyl]-2-pyridylamino}-2-methyl-2-propylamino}acetyl-2-pyrrolidinecarbonitrile], the IC50 in assay [1] worked out at 0.034 µM.
The compound `CC1(NCC(=O)N2CCC[C@H]2C#N)CCN(c2ccccn2)CC1` [Compound 238, (S)-1-[4-Methyl-1-(2-pyridyl)-4-piperidylamino]acetyl-2-pyrrolidinecarbonitrile dihydrochloride] gave a half-inhibitory concentration (IC50) in assay [1] of 0.011 µM.
The compound `N#C[C@@H]1CCCN1C(=O)CNCCNc1cnc2ccccc2n1` [Compound 103, (S)-1-[2-(2-Quinoxalinylamino)ethylamino]acetyl-2-pyrrolidinecarbonitrile dihydrochloride] displayed an IC50 in assay [1] of 0.061 µM.
`N#Cc1cccnc1NCc1ccc(CNCC(=O)N2CCC[C@H]2C#N)cc1` [Compound 201, (S)-1-{4-[(3-Cyano-2-pyridyl)aminomethyl]benzylamino}acetyl-2-pyrrolidinecarbonitrile oxalate] displayed an IC50 in assay [1] of 0.392 µM.
In assay [1], `N#C[C@@H]1CCCN1C(=O)CNCCNC(=O)c1ccccc1` [Compound 403, (S)-1-(2-Benzamidoethylamino)acetyl-2-pyrrolidinecarbonitrile hydrochloride] displayed an IC50 of 0.124 µM.
